The source of these data is patent US20250303156A1, “CONCOMITANT TREATMENT OF TTFIELDS AND HMG-CO A REDUCTASE INHIBITORS” (NOVOCURE GMBH, priority 2024, published 2025).

The assay concerns non small cell lung cancer (NSCLC). As to the kind of experiment: clinical study in non small cell lung cancer: survival with statins in addition to TTFields. The class given is in vivo, human. Conditions: statin plus Docetaxel plus TTFields compared to the same statin plus Docetaxel; FIGS. 5-7. The source says:
In some aspects, the materials and methods described in Leal et al. “Tumor Treating Fields therapy with standard systemic therapy versus standard systemic therapy alone in metastatic non-small-cell lung cancer following progression on or after platinum-based therapy (LUNAR): a randomised, open-label, pivotal phase 3 study” Lancet Oncol. 2023 September; 24(9):1002-1017 can be used, such methods and materials are hereby incorporated by reference in its entirety herein. The disclosed experiments were based on a clinical trial in which subjects received Docetaxel or a combination of Docetaxel and TTFields. The patients also received statins during the clinical trial. The statins were not part of the clinical trial, however, the patients were previously on statins due to the chronic condition and continued to receive statins.

Turning to `CC(C)c1c(C(=O)Nc2ccccc2)c(-c2ccccc2)c(-c2ccc(F)cc2)n1CC[C@@H](O)C[C@@H](O)CC(=O)O` [Atorvastatin, atorvastatin], the “median survival of patients” value was “increase in median survival”. Turning to `CC(C)c1nc(N(C)S(C)(=O)=O)nc(-c2ccc(F)cc2)c1/C=C/[C@@H](O)C[C@@H](O)CC(=O)O` [Rosuvastatin, rosuvastatin], the “median survival of patients” value is recorded as “increase in median survival”.
